Like-named read-outs stand apart in the source and are kept apart here.
What was measured:
[1] = biological target: T1, Gal-3 CRD (residues 108–250) (Homo sapiens, UniProt P17931); assay: 1H-15N HSQC NMR titration of 15N-labeled Gal-3 CRD; format: binding
T1 construct: its Gal-3 CRD (residues 108–250); made in house
Method: (§1) Uniformly ^15N-labeled Gal-3 (or Gal-7) was dissolved at a concentration of 20 μM in 20 mM potassium phosphate buffer at pH 6.9, made up using a 95% H2O/ 5% D2O mixture. ^1H–^15N HSQC NMR experiments were used to investigate binding of KS or KSDS to Gal-3[39] and Gal-7[90]. NMR experiments were performed at 30 °C on Bruker AVANCE III 700 MHz or 850 MHz spectrometers equipped with cryogenically-cooled z-gradient triple resonance probes. Chemical shift perturbations were monitored, using the sequence-specific ^1H and ^15N resonances assignments for human Gal-3, Gal-3 CRD, and Gal-7. Chemical shifts were internally referenced to DSS (4,4-dimethyl-4-silapentane-1-sulfonic acid). Raw data were converted and processed by using NMRPipe[91] and were analyzed by using NMRview[92].
(§2) Chemical shifts, δ, were referenced to 4,4-dimethyl-4-silapentane-1-sulfonic acid, and chemical shift differences (∆δ) were calculated as [(∆^1H)^2 + (0.25∆^15N)^2 ]^1/2. Intensity changes (∆Intensity) were calculated as (1 − Inti/Into), where Into is the initial resonance intensity and Inti is the intensity upon addition of KS or KSDS or another saccharide. Using this equation, a value of 1 means that that resonance is no longer observable, and 0 means the absence of resonance broadening, with a negative value indicating increased resonance intensity. In chemical shift or resonance broadening maps, the most perturbed resonances are defined as > 2SD above the average or > 1SD above the average. The 50% bound mark was taken from titration curves at 50% bound.

[2] = biological target: T2, Gal-3 FL (full-length human Gal-3, residues 1–250) (Homo sapiens, UniProt P17931); assay: 1H-15N HSQC NMR titration of 15N-labeled full-length Gal-3; format: binding
T2 construct: Full-length human Gal-3 (residues 1–250); made in house
Method: as §1, §2

[3] = PFG NMR self-diffusion of KS alone; format: physicochemical; settings: KS 4 μM in the absence of Gal-3; 20 mM potassium phosphate in 2H2O, pD 6.7, 30 °C
Method: (§3) For pulsed field gradient (PFG) NMR self-diffusion measurements, a solution was made up with KS (4 μM) in 20 mM potassium phosphate buffer with ^2H2O at pD 6.7 adjusted by addition of NaO^2H or ^2HCl. To this solution, ^15N/^13C-labeled Gal-3 (full-length and CRD) dissolved in the same buffer was added at increasing concentrations as molar ratios of [Gal-3]/[KS]. PFG NMR data were acquired at 30 ◦C on a Bruker AVANCE 700 spectrometer, essentially as previously described. For unrestricted diffusion of molecules in isotropic solutions, the PFG NMR signal amplitude, A, normalized to the signal in the absence of gradient pulses, is related to the diffusion coefficient D by Eq. (1):1 A=exp[-γ^2g^2Δ^2D(Δ-[…])]
(§4) where γ is the gyromagnetic ratio, g is the magnitude of the magnetic field gradient pulse, ∆ is the time between gradient pulses. Here, we set g = 1–75 G/cm, ∆ = 34.2 ms, with a longitudinal eddy-current delay of 100 ms. Each D value was determined from a series of 14 1D PFG NMR spectra (256 scans each) using different g values. To derive D values, the gradient-induced change in amplitude of KS resonances at 3.64 and 3.7 ppm was used. In this spectral region, KS resonance intensity was considerably greater than that from Gal-3. In order to decrease Gal-3 resonance intensity further, ^13CH and ^15NH resonances from labeled Gal-3 were not decoupled.

[4] = biological target: Gal-3 (full-length and CRD) (Homo sapiens, UniProt P17931); assay: PFG NMR diffusion of KS as a function of Gal-3/KS molar ratio; format: binding
Method: as §3, §4

Gal-7 = biological target: T3, Gal-7 (Homo sapiens, UniProt P47929); assay: 1H-15N HSQC NMR titration of 15N-labeled Gal-7; format: binding
T3 construct: made in house
Method: as §1
as §2, with “In chemical shift or resonance broadening maps, the most perturbed resonances are defined as > 2SD above the average or > 1SD above the average. The 50% bound mark was taken from titration curves at 50% bound.” left out

T1 sequence (P17931 108-250): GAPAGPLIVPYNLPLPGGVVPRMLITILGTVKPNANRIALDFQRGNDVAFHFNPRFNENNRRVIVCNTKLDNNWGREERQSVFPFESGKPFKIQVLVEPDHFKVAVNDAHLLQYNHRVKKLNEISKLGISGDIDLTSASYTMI
T2 sequence (P17931 whole entry, the tested form may be a part): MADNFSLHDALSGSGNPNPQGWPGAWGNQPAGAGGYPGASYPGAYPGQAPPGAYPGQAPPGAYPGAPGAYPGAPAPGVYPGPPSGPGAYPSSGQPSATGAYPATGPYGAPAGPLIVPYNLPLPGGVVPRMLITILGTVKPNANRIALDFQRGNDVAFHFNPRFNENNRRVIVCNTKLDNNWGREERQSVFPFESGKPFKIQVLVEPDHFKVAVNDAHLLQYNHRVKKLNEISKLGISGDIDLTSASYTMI
Sequence of Gal-3 (full-length and CRD) (P17931 108-250 limits assumed): as the sequence (P17931 108-250) above
T3 sequence (P47929 whole entry): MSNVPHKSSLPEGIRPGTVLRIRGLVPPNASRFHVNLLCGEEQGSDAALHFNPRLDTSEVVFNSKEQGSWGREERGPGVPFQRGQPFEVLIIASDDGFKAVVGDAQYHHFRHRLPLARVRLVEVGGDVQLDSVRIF

Molecule: CC(=O)N[C@H]1C(O)O[C@H](CO)[C@@H](O[C@@H]2O[C@H](CO)[C@H](O)[C@H](O)[C@H]2O)[C@@H]1O (some centres unmarked) [LacNAc, N-acetyllactosamine, reference compound]
- Kd ([1]; fast exchange, from chemical shifts vs ligand concentration, Gal-3 CRD 20 μM, pH 6.9, 30 °C, read-out: KD): 380 µM
- Kd ([2]; fast exchange, from chemical shifts vs ligand concentration, Gal-3 FL 20 μM, pH 6.9, 30 °C, read-out: KD): 190 µM

Molecule: keratan sulfate [KS]
- diffusion coefficient D [3]: 0.92 × 10^–6 cm^2/s^-1
- Kd ([1]; 7 μM × 22 sites, assumes the same stoichiometry as KSDS, Gal-3 CRD, read-out: site-average microscopic KD): 154 µM
- Kd ([1]; apparent affinity/avidity from average ∆δ vs ligand concentration, 20 μM Gal-3 CRD, 20 mM KPhos, pH 6.9, 30 °C, read-out: 50% change in chemical shift / 50% lectin bound (ligand concentration)): ~7 µM
- Kd ([2]; 2 μM × 17 sites, assumes the same stoichiometry as KSDS, Gal-3 FL, read-out: site-average microscopic KD): 34 µM
- Kd ([2]; apparent affinity/avidity from average ∆δ vs ligand concentration, 20 μM Gal-3 FL, 20 mM KPhos, pH 6.9, 30 °C, read-out: 50% change in chemical shift / 50% lectin bound (ligand concentration)): ~2 µM
- binding stoichiometry, Gal-3 molecules per KS molecule ([4]; D trend continues to Gal-3/KS molar ratio of ~6 to 8, both Gal-3 FL and CRD): ≤ 8
- decrease of KS D value ([4]; upon addition of one mole equivalent of Gal-3): about 40%
- Kd (Gal-7; binding avidity estimated from average ∆δ vs glycosaminoglycan concentration, 20 μM Gal-7, pH 6.9, 30 °C, read-out: 50% Gal-7 loaded with ligand (ligand concentration)): ~4.5 µM

Molecule: CC(=O)N[C@H]1[C@H](O[C@H]2[C@@H](O)[C@@H](CO)O[C@@H](O[C@H]3[C@H](O)[C@@H](O)C(O)O[C@@H]3CO)[C@@H]2O)O[C@H](CO)[C@@H](O)[C@@H]1O[C@@H]1O[C@H](CO)[C@H](O)[C@H](O)[C@H]1O (some centres unmarked) [LNT, lacto-N-tetraose, reference compound]
- Kd (Gal-7; fast exchange, from average ∆δ vs ligand concentration, Gal-7, pH 6.9, 30 °C, read-out: KD): ~500 µM

From paper PMC7515912, “Structural insight into the binding of human galectins to corneal keratan sulfate, its desulfated form and related saccharides” (Scientific Reports, 2020)
